{"source": "patent US20180030091A1", "about": "“COLLAGEN-BINDING SYNTHETIC PEPTIDOGLYCANS FOR USE IN VASCULAR INTERVENTION” (Purdue Research Foundation, priority 2010, published 2018)", "key": {"Fibrillar collagen": {"molecular_target": "Fibrillar collagen", "experiment": "Binding affinity of biotin labeled peptidoglycan to fibrillar collagen", "settings": "biotin labeled peptidoglycans, fitted saturation binding curves", "description": "Fibrillar collagen (Chronolog, Havertown, Pa.) was coated onto the surface of a 96-well high bind plate (Costar) at a concentration of 50 μg/mL diluted in isotonic glucose. Plates were covered and incubated overnight at 4° C. Unbound collagen was removed by rinsing 3 times with 1×PBS pH 7.4. Plates were then blocked with 1% BSA for 3 hours at room temperature. Peptidoglycan was dissolved at varying concentrations in 1×PBS pH 7.4 containing 1% BSA and were immediately added to the collagen surfaces, and allowed to incubate for 15 min at room temperature. Plates were then rinsed 3 times with 1×PBS pH 7.4 containing 1% BSA. Streptavidin-HRP solution (R&D Systems, Minneapolis, Minn.) was then added to the plates and incubated for 20 minutes at room temperature. […] The color evolving reaction was stopped with 50 μL 2N sulfuric acid and absorbance was measured at 450 nm using an M5 UV Vis Spectrophotometer (Molecular Devices). Plate imperfections (540 nm) were subtracted from absorbance values.\nThe binding affinities of biotin labeled peptidoglycans, labeled using protocols known in the art, DS-SILY4 and DS-SILY18 were calculated by fitting the saturation binding curves and calculating the inflection point. […]"}, "[1]": {"system": "Human coronary artery smooth muscle cells (HCA SMC)", "experiment": "Gel compaction by smooth muscle cells in collagen gels", "type": "cell-based", "description": "Human coronary artery smooth muscle cells (HCA SMC) (Cascade Biologics) were cultured in growth medium (Medium 231 supplemented with smooth muscle growth factor). Cells from passage 3 were used for all experiments. Differentiation medium (Medium 231 supplemented with 1% FBS and 1×pen/strep) was used for all experiments unless otherwise noted.\nCollagen gels were prepared with each additive as described with the exception that the 1×PBS sample addition was omitted to accommodate the addition of cells in media. After incubating on ice for 30 min, HCA SMCs in differentiation medium were added to the gel solutions to a final concentration of 1×10^6 cells/mL. Gels were formed in quadruplicate in 48-well non-tissue culture treated plates (Costar) for 6 hrs before adding 500 μL/well differentiation medium. Gels were freed from the well edges after 24 hrs. Medium was changed every 2-3 days and images for compaction were taken at the same time points using a Gel Doc System (Bio-Rad). The cross-sectional area of circular gels correlating to degree of compaction was determined using ImageJ software (NIH). Gels containing no cells were used as a negative control and cells in collagen gels absent additive were used as a positive control. By day 10 all gels had compacted to approximately 10% of the original gel area, and differences between additives were small."}, "collagen [2]": {"system": "collagen", "experiment": "Cryo-SEM measurement of fibril diameters", "settings": "cryo-SEM images at 20,000×", "description": "Using a modification of EXAMPLE 18 fibril diameters were measured by 8cryo-SEM. Fibril diameters from cryo-SEM images taken at 20,000× were measured using ImageJ software (NIH). At least 45 fibrils were measured for each treatment. Results are presented as Avg.±S.E. Statistical analysis was performed using DesignExpert software (StatEase) with α=0.05."}, "collagen [3]": {"system": "collagen", "experiment": "SILY binding to collagen (Biacore surface plasmon resonance)", "description": "Biacore studies were performed on a Biacore 2000 using a CM-3 chip (Biacore, Inc., Piscataway, N.J.). The CM-3 chip is coated with covalently attached carboxymethylated dextran, which allows for attachment of the substrate collagen via free amine groups. Flow cells (FCs) 1 and 2 were used, with FC-1 as the reference cell and FC-2 as the collagen immobilized cell. Each FC was activated with EDC-NHS, and 1500 RU of collagen was immobilized on FC-2 by flowing 1 mg/mL collagen in sodium acetate, pH 4, buffer at 5 μL/min for 10 min. Unreacted […] sites were capped with ethanolamine; the control FC-1 was activated and capped with ethanolamin.\nTo determine peptide binding affinity, SILY was dissolved in 1×HBS-EP buffer (Biacore) at varying concentrations from 100 μM to 1.5 μm in 2-fold dilutions. […] The first 10 injections were buffer injections, which help to prime the system, followed by randomized sample injections, run in triplicate. Analysis was performed using BIAevaluation software (Biacore)."}, "collagen [4]": {"molecular_target": "T1, collagen (Bos taurus, UniProt P02453+P02465)", "T1 construct": "purchased Inamed, Freemont, Calif; (Nutragen)", "T1 sequence (P02453 162-1217 limits assumed)": "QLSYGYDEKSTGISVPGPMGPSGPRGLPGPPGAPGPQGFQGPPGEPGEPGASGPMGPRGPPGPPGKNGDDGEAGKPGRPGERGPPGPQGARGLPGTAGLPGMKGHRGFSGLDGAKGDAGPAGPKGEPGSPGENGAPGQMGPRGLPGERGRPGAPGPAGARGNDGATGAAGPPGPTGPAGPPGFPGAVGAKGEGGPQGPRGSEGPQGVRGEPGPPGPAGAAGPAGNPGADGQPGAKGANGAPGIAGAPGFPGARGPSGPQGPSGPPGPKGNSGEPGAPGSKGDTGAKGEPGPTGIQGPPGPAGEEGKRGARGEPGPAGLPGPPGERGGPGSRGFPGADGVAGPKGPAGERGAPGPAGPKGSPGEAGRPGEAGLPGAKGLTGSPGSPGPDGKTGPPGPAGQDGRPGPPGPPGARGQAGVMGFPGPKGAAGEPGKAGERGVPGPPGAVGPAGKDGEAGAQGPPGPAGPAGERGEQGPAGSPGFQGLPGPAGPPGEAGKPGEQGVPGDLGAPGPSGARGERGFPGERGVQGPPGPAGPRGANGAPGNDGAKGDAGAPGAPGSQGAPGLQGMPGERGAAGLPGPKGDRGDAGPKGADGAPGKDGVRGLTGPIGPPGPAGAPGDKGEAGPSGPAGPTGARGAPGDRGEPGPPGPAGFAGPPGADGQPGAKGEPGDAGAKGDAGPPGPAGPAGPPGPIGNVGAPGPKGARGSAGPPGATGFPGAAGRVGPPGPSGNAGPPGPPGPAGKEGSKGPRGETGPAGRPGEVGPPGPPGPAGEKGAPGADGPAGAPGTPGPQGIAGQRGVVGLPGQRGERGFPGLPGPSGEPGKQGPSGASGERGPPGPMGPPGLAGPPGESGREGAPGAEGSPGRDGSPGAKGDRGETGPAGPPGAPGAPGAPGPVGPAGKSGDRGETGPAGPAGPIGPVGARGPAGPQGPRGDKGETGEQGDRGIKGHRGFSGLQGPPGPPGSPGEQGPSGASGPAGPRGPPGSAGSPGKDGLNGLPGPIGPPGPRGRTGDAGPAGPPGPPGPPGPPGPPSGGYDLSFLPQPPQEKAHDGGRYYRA", "T1 sequence (P02465 80-1117 limits assumed)": "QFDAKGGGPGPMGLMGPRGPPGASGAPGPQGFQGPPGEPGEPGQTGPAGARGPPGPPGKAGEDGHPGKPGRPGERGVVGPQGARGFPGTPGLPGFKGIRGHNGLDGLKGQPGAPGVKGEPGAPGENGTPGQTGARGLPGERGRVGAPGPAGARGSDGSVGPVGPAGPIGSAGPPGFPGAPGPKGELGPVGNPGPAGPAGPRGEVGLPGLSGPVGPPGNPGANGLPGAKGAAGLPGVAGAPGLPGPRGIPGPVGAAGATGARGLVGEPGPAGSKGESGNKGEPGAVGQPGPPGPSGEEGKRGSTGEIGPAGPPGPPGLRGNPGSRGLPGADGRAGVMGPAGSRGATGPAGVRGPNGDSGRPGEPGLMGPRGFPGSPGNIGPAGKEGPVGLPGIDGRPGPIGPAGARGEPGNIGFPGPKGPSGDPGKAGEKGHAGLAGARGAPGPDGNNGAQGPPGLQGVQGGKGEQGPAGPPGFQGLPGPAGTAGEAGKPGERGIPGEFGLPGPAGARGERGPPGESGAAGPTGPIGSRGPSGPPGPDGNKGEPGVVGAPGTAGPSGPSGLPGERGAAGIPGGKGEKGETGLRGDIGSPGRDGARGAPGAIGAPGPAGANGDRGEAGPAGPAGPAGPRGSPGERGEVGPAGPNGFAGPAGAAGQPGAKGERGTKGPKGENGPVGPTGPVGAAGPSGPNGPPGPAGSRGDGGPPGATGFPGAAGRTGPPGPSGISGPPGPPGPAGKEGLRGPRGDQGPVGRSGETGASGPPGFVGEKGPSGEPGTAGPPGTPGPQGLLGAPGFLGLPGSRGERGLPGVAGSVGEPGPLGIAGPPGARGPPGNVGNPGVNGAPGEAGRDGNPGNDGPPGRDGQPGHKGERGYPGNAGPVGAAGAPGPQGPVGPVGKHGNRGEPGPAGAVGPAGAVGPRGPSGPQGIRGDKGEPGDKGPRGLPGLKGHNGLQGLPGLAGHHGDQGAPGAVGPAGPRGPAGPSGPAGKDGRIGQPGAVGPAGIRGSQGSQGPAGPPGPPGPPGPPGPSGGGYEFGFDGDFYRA", "experiment": "Cryo-SEM measurement of fibril density", "settings": "10:1 molar ratio, cryo-SEM 10,000×", "description": "Collagen gels were formed in the presence of each additive at a 10:1 molar ratio, as described in EXAMPLE 15, directly on the SEM stage, processed, and imaged as described. Images at 10,000× were analyzed for fibril density calculations. Images were converted to 8-bit black and white, and threshold values for each image were determined using ImageJ software (NIH). The threshold was defined as the value where all visible fibrils are white, and all void space is black. The ratio of white to black area was calculated using MatLab software. All measurements were taken in triplicate and thresholds were determined by an observer blinded to the treatment."}, "[5]": {"system": "Human platelets on Type I fibrillar collagen", "experiment": "Inhibition of platelet activation on fibrillar collagen after 24 hour rinse (PF4, NAP2)", "type": "cell-based", "settings": "50 μM, incubated 15 min, rinsed for 24 hours", "description": "Type I fibrillar collagen from Chronolog was diluted in isotonic glucose to a concentration of 50 μg/mL. 50 μL of collagen solution was added to each well of a high bind 96-well plate. The plate was incubated overnight at 4° C., and then rinsed 3× with 1×PBS. For microplate assays, peptidoglycan was diluted in 1×PBS at concentrations between 0.0001 μM to 100 μM and 50 μL solution was added to the collagen coated wells. DS, peptide, or 1×PBS were also added to collagen coated wells as controls. Treatments were incubated at 37° C. with shaking at 200 rpm for 15 min. Wells were then rinsed of unbound treatment by removing the treatment solution, adding PBS, and shaking the wells for 24 hours. During the 24 hours, PBS solution was changed 3 times.\nHuman whole blood was collected from healthy volunteers by venipuncture. The first 5 mL of blood was discarded and approximately 20 mL was then collected into citrated glass vacutainers (BD Bioscience). Blood was centrifuged in the glass tube for 20 min at 200 g at 25° C. The top layer of the centrifuged blood, the platelet rich plasma (PRP), was used for platelet experiments.\nPRP (50 μL/well) was added to the microplate for 1 hour at room temperature without shaking. After 1 hour of incubation, 45 μL of PRP was removed from each well and added to a microcentrifuge tube containing […] ETP (107 mM EDTA, 12 mM theophylline, and 2.8 mM prostaglandin E1) to inhibit further platelet activation. These tubes were spun at 4° C. for 30 min at 2000 g to pellet the platelets. The supernatant (platelet serum) was collected for ELISA studies to test for the presence of platelet activation markers PF-4 and NAP2. Sandwich ELISAs were utilized in order to detect each protein. The components for both sandwich ELISAs were purchased from R&D Systems and the provided protocols were followed. Platelet serum was diluted 10,000 times in 1% BSA in 1×PBS for values to fall within a linear range.\nPlatelet activation was measured through release of platelet factor 4 (PF4) and β-thromboglobulin (NAP2). […] Since the high SILY/DS ratio is expected to provide higher binding affinity to the collagen surface due to multiple interactions, peptidoglycans with the higher SILY/DS ratios were prepared.\nThe number of peptides per DS molecule was further increased to 18 to create the peptidoglycan DS-SILY18, and the concentration of molecule needed to inhibit platelet activation was tested. […] Within solubility limits, the number of peptides can be increased to achieve maximal platelet inhibition as well as to reduce diffusion over time, where a higher level of peptidoglycans on the denuded vessel wall is sustained."}, "[6]": {"system": "Human aortic smooth muscle cells", "experiment": "Collagen remodeling: hydroxyproline content in medium of cell-seeded collagen gels", "type": "cell-based", "settings": "up to 30 days", "description": "Following a method by Grassl, et al. (Grassl, et al., Journal of Biomedical Materials Research 2002, 60, (4), 607-612), which is herein incorporated in its entirety, collagen gels with or without synthetic PG mimics were formed as described in EXAMPLE 15. Human aortic smooth muscle cells (Cascade Biologics, Portland, Oreg.) were seeded within collagen gels by adding 4×10^6 cells/mL to the neutralized collagen solution prior to incubation. The cell-collagen solutions were pipetted into an 8-well Lab-Tek chamber slide and incubated in a humidified 37° C. and 5% CO2 incubator. After gelation, the cell-collagen gels will be covered with 1 mL Medium 231 as prescribed by Cascade. Every 3-4 days, the medium was removed from the samples and the hydroxyproline content measured by a standard hydroxyproline assay (Reddy, 1996).\nTo measure degraded collagen in the supernatant medium, the sample was lyophilized, the sample hydrolyzed in 2 M NaOH at 120° C. for 20 min. After cooling, free hydroxyproline was oxidized by adding chloramine-T (Sigma) and reacting for 25 min at room temperature. Ehrlich's aldehyde reagent (Sigma) was added and allowed to react for 20 min at 65° C. and followed by reading the absorbance at 550 nm on an M-5 spectrophotometer (Molecular Devices). […] Cultures were incubated for up to 30 days and three samples of each treatment measured. […]"}, "collagen [7]": {"molecular_target": "T1, collagen", "experiment": "Collagen fibrillogenesis by turbidity at 313 nm", "type": "biochemical", "settings": "1:1 collagen:additive molar ratio", "description": "Collagen fibrillogenesis was monitored by measuring turbidity related absorbance at 313 nm providing information on rate of fibrillogenesis and fibril diameter. Gel solutions were prepared as described in EXAMPLE 15 (4 mg/mL collagen, 10:1 collagen:treatment, unless otherwise indicated) and 50 uL/well were added at 4° C. to a 384-well plate. The plate was kept at 4° C. for 4 hours before initiating fibril formation. A SpectraMax M5 at 37° C. was used to measure absorbance at 313 nm at 30 s intervals for 6 hours.\nA fibrillogenesis assay as described for DS-SILY, EXAMPLE 17, performed with the conjugate DS-Dc13."}}, "note": "Entries after “also recorded” stand apart in the source; their conditions may differ. Where no end group is shown, it is not given here."}
{"substance": "DS-SILY4: dermatan sulfate with 4 SILY peptides via BMPH; tested biotin labeled (RRANAALKAGELYKSILYGC-NH2; also: Cys thiol coupled via BMPH crosslinker to oxidized dermatan sulfate, 4 peptides per glycan, biotin label in tested form, position not given here)", "values": [{"measurement": "Kd", "setting": "Fibrillar collagen", "value": 118, "unit": "nM"}]}
{"substance": "Decorin", "values": [{"measurement": "gel compaction, day 7", "setting": "[1]; Day 7", "value": "significant against all samples"}, {"measurement": "gel compaction, days 3 and 5", "setting": "[1]; Days 3 and 5", "value": "significant relative to collagen and DS"}, {"measurement": "fibril diameter", "setting": "collagen [2]", "value": "significantly decrease fibril diameter over collagen or collagen+DS; also recorded: significantly decrease fibril diameter over collagen or collagen+dermatan sulfate"}]}
{"substance": "RRANAALKAGELYKSILYGC", "values": [{"measurement": "binding to collagen (association/disassociation curves)", "setting": "collagen [3]; 100 μM to 1.5 μm in 2-fold dilutions", "value": "binds reversibly with collagen"}, {"measurement": "Kd", "setting": "collagen [3]; calculated from the on-off binding kinetics, collagen on CM-3 chip", "value": 1200, "unit": "nM"}, {"measurement": "fibril density (ratio of fibril containing area to void space)", "setting": "collagen [4]", "value": "significantly greater fibril density"}, {"measurement": "inhibition of platelet activation (release of PF4 and NAP2)", "setting": "[5]", "value": "little to no effect on inhibiting platelet activation"}, {"measurement": "collagen degradation by hydroxyproline content in cell medium", "setting": "[6]", "value": "greater collagen degradation compared to collagen alone"}]}
{"substance": "SYIRIADTNITGC [Dc13]", "values": [{"measurement": "fibrillogenesis (absorbance at 313 nm), free peptide", "setting": "collagen [7]", "value": "little effect on fibrillogenesis compared to collagen alone"}, {"measurement": "collagen degradation by hydroxyproline content in cell medium", "setting": "[6]", "value": "greater collagen degradation compared to collagen alone"}]}
